Measured values published in US9029388B2, “Condensed heterocyclic compound” (Takeda Pharmaceutical Company Limited, priority 2011, dated 2015).

Experiments:
human PDE10A enzyme = target: T1, human PDE10A enzyme (Homo sapiens, UniProt Q9Y233); test: PDE10A enzyme activity inhibition test (Scintillation Proximity Assay, [3H]cGMP substrate); format: biochemical; details: control without compound = 0%, without compound and enzyme = 100%; for inhibition at 0.1 µM: compound 0.1 μM, read-out: Inhibitory rate (%) (0.1 μM); for inhibition at 10 µM: compound 10 μM, read-out: Inhibitory rate (%) (10 μM)
T1 construct: Human PDE10A full-length gene was transfected into Sf9 or COS-7 cells; His-tag; made in house; host or cells: Sf9 or COS-7 cells
T1 sequence (Q9Y233 267-1055): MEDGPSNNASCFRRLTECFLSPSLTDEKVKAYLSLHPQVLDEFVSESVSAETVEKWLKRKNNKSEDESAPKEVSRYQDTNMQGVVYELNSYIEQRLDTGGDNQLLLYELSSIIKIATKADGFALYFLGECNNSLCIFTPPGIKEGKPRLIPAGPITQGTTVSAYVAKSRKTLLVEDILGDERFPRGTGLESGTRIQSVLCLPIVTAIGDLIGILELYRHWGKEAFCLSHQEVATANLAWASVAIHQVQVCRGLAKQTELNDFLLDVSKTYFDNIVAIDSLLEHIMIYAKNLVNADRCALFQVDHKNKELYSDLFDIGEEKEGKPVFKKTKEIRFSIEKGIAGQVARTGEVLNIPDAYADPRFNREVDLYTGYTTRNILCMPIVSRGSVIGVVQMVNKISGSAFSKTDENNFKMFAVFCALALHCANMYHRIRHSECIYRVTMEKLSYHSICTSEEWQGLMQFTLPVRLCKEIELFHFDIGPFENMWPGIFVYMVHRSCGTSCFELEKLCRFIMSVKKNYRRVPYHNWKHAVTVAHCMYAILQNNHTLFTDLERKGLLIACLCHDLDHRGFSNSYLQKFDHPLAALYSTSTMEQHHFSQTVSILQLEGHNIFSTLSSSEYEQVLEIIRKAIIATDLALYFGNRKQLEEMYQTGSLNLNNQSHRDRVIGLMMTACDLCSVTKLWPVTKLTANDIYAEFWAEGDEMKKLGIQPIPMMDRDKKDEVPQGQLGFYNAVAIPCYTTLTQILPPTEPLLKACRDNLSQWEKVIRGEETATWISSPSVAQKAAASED
Experimental: Human PDE10A full-length gene was transfected into Sf9 or COS-7 cells. The cells were disrupted and centrifuged, and human PDE10A enzyme was obtained from the residue. The enzyme extracted from Sf9 cells was partially purified using His-tag affinity column. The enzyme was stored at −70° C. until use.
The PDE 10A enzyme activity was measured using an Scintillation Proximity Assay (SPA, GE Healthcare). To measure the inhibitory activity of the test compound, 10 μL of serially diluted test compound was reacted with 20 μL of PDE 10A enzyme in an assay buffer (50 mM HEPES-NaOH, 8.3 mM MgCl2, 1.7 mM EGTA, 0.1% BSA (pH 7.4)) for 30 min at room temperature. The final concentration of DMSO in the reaction mixture was 1%.
The compounds were evaluated in duplicate in 96-well half-area plates (Corning). To start the reaction, 10 μL of substrate [3H] cGMP (25 or 50 nM; GE Healthcare and PerkinElmer, respectively) was added thereto to the total volume of 40 μL. After 60 min of reaction at room temperature, yttrium SPA beads containing zinc sulphate were added (6 mg/mL, 20 μL) to terminate the reaction. After standing still for 1 hr, the measurement was performed using a scintillation counter (PerkinElmer) and the inhibition rate was calculated. As for the inhibitory rate, the value without addition of the compound (control) was 0%, and that without addition of the compound and enzyme was 100%.

[1] = system: hyperlocomotion induced by MK-801; test: Suppressive action on hyperlocomotion induced by MK-801; format: in vivo, rat; details: male SD rats; 1 mg/kg p.o., 60 min before MK-801 (0.3 mg/kg, s.c.); vs vehicle, Student's t-test P<0.05; FIG. 1
From the text: Male SD rats were purchased from Charles River Laboratories Japan, Inc. (Kanagawa, Japan), and used for the experiment at the age of 8 weeks. After arrival at the vivarium, the animals were acclimated for at least 1 week. The animals were reared under a 12:12 hr light/dark cycle in a temperature- and humidity-controlled laboratory and allowed to freely take food and water.
Example 14 was suspended in 0.5% (w/v) aqueous methylcellulose solution and orally administered (p.o.). (+)-MK-801 hydrogen maleate (MK-801, Sigma-Aldrich, St Louis, State of Missouri) was dissolved in saline, and subcutaneously administered (s.c.). All drugs were dosed in a volume of 2 mL/kg body weight for rats.
Hyperlocomotion induced by psychostimulants (e.g., amphetamine, cocaine, methamphetamine, MK-801 and phencyclidine) in rodents is widely used as an animal model of psychosis (Psychopharmacology 1999, vol. 145: 237-250). Using rats, a suppressive action of a compound (Example 14) on the hyperlocomotion induced by MK-801 was tested. Until the start of the test, male SD rats (8-week-old) were acclimated in a locomotor chamber with an infrared sensor set on the upper side (Muromachi Kikai Co., Ltd., Tokyo, Japan). […] Hyperlocomotion was measured every 1 min, and the cumulative count for 120 min from the administration of MK-801 was calculated for each treatment group. […]

| inhibition at 0.1 µM (human PDE10A enzyme) | inhibition at 10 µM (human PDE10A enzyme) | melting point | Structure (SMILES) | suppression of hyperlocomotion induced by MK-801 (cumulative count 0-120 min) [1] |
| --- | --- | --- | --- | --- |
| 63% | 98% | – | Cc1cn2cccc(-c3ccc(Oc4nc5ccccc5[nH]4)cc3)c2n1 [Example 1, 2-[4-(2-Methylimidazo[1,2-a]pyridin-8-yl)phenoxy]-1H-benzimidazole] | – |
| 99% | 101% | – | CCc1nn(-c2ccc(Oc3nc4cccnc4n3C)cc2)c2ncccc12 [Example 12, 3-Ethyl-1-{4-[(3-methyl-3H-imidazo[4,5-b]pyridin-2-yl)oxy]phenyl}-1H-pyrazolo[3,4-b]pyridine] | – |
| 62% | 98% | – | c1ccc2[nH]c(Oc3ccc(-c4cccn5ccnc45)cc3)nc2c1 [Example 2, 2-[4-(Imidazo[1,2-a]pyridin-8-yl)phenoxy]-1H-benzimidazole] | – |
| 93% | 102% | – | CCn1nc2cccnc2c1-c1ccc(Oc2nc3ccccc3n2C)cc1 [Example 4, 2-Ethyl-3-{4-[(1-methyl-1H-benzimidazol-2-yl)oxy]phenyl}-2H-pyrazolo[4,3-b]pyridine] | – |
| 99% | – | – | COc1nn(-c2ccc(Oc3nc4ccccc4[nH]3)cc2)c2ncccc12 [Example 6, 1-[4-(1H-benzimidazol-2-yloxy)phenyl]-3-methoxy-1H-pyrazolo[3,4-b]pyridine] | – |
| 104% | 109% | 189 to 192 °C | CC(=O)Cn1c(Oc2ccc(-n3c4ncccc4n4ccnc34)cc2)nc2ccccc21 [Example 10, 1-{2-[4-(9H-imidazo[1′,2′:1,2]imidazo[4,5-b]pyridin-9-yl)phenoxy]-1H-benzimidazol-1-yl}propan-2-one] | – |
| 93% | 104% | – | CCc1nn(-c2ccc(Oc3nc4ccccc4n3C)cc2)c2ncccc12 [Example 8, 3-Ethyl-1-{4-[(1-methyl-1H-benzimidazol-2-yl)oxy]phenyl}-1H-pyrazolo[3,4-b]pyridine] | – |
| 104% | 106% | 208 to 211 °C | CC(C)(O)Cn1c(Oc2ccc(-n3c4ncccc4n4ccnc34)cc2)nc2ccccc21 [Example 11, 1-{2-[4-(9H-imidazo[1′,2′:1,2]imidazo[4,5-b]pyridin-9-yl)phenoxy]-1H-benzimidazol-1-yl}-2-methylpropan-2-ol] | – |
| 2% | 51% | – | c1ccc2[nH]c(Oc3ccc(C4CCCn5ccnc54)cc3)nc2c1 (centres unmarked) [Example 5, 2-[4-(5,6,7,8-Tetrahydroimidazo[1,2-a]pyridin-8-yl)phenoxy]-1H-benzimidazole] | – |
| 97% | 106% | 228 to 231 °C | Cn1c(Oc2ccc(-n3c4ncccc4n4ccnc34)cc2)nc2cccnc21 [Example 13, 9-{4-[(3-Methyl-3H-imidazo[4,5-b]pyridin-2-yl)oxy]phenyl}-9H-imidazo[1′,2′:1,2]imidazo[4,5-b]pyridine] | – |
| 98% | 105% | 190 to 192 °C | COCCn1c(Oc2ccc(-n3c4nccc(C)c4n4ccnc34)cc2)nc2cccnc21 [Example 16, 9-(4-{[3-(2-Methoxyethyl)-3H-imidazo[4,5-b]pyridin-2-yl]oxy}phenyl)-5-methyl-9H-imidazo[1′,2′:1,2]imidazo[4,5-b]pyridine] | – |
| 96% | 105% | 178 to 182 °C | COCCn1c(Oc2ccc(-n3c4ncccc4n4ccnc34)cc2)nc2cccnc21 [Example 14, 9-(4-{[3-(2-Methoxyethyl)-3H-imidazo[4,5-b]pyridin-2-yl]oxy}phenyl)-9H-imidazo[1′,2′:1,2]imidazo[4,5-b]pyridine] | significantly suppressed hyperlocomotion induced by MK-801 |
| 93% | 96% | 232 to 234 °C | Cn1c(Oc2ccc(-n3c4ncccc4n4ccnc34)cc2)nc2ccccc21 [Example 9, 9-{4-[(1-Methyl-1H-benzimidazol-2-yl)oxy]phenyl}-9H-imidazo[1′,2′:1,2]imidazo[4,5-b]pyridine] | – |
| 91% | 102% | – | CCn1nc2cccnc2c1-c1ccc(Oc2nc3ccccc3[nH]2)cc1 [Example 3, 3-[4-(1H-benzimidazol-2-yloxy)phenyl]-2-ethyl-2H-pyrazolo[4,3-b]pyridine] | – |
| 59% | – | – | Cn1c(=O)c2cccnc2n1-c1ccc(Oc2nc3ccccc3[nH]2)cc1 [Example 7, 1-[4-(1H-benzimidazol-2-yloxy)phenyl]-2-methyl-1,2-dihydro-3H-pyrazolo[3,4-b]pyridin-3-one] | – |
| 97% | 95% | 236 to 239 °C | Cc1ccnc2c1n1ccnc1n2-c1ccc(Oc2nc3cccnc3n2C)cc1 [Example 15, 5-Methyl-9-{4-[(3-methyl-3H-imidazo[4,5-b]pyridin-2-yl)oxy]phenyl}-9H-imidazo[1′,2′:1,2]imidazo[4,5-b]pyridine] | – |
